Data as given in patent US20250223259A1, “PROTEASE INHIBITORS FOR TREATING OR PREVENTING CORONAVIRUS INFECTION” (Merck Sharp & Dohme LLC, priority 2022, published 2025).

Biological target: SARS2 coronavirus 3CL protease (Severe acute respiratory syndrome coronavirus 2 (2019-nCoV) (SARS-CoV-2), UniProt P0DTD1)
Test: SARS2 Coronavirus 3CL Protease Assay (FRET)
Assay type: biochemical
Conditions: SARS2 3CLPro FRET assay; 5 nM enzyme, 30 min pre-incubation with compound, 15 uM peptide substrate, 4 h room temperature
Procedure: The enzymatic activity of SARS2 coronavirus 3CL protease was determined in a FRET (fluorescence resonance energy transfer)-based assay measuring the cleavage of a peptide substrate by recombinantly expressed and purified enzyme. Cleavage of the peptide SEQ ID NO:1 (CPC Scientific) by SARS2 3CL protease was measured in reaction buffer (50 mM Hepes pH 7.5, 0.01% Triton X-100, 0.01% BSA, 2 mM DTT). SARS2 3CL protease (5 nM final concentration) was pre-incubated with compound for 30 minutes before reaction initiation with peptide substrate (15 uM final concentration). Room temperature reactions (4 h) were quenched by addition of a high dose of inhibitor and read on an appropriate plate reader (excitation wavelength=495 nm, emission wavelength=520 nm). Data were analyzed by a standard 4 parameter fit to determine IC50 values.

| SMILES | IC50 |
| --- | --- |
| CNC(=O)C(=O)[C@H](CCC(C)(F)F)NC(=O)[C@@H]1[C@H]2CCC[C@H]2CN1C(=O)[C@@H](NC(=O)OCC(F)(F)F)C(C)(C)C [Example 122, 2,2,2-trifluoroethyl ((S)-1-((1S,3aR,6aS)-1-(((S)-6,6-difluoro-1-(methylamino)-1,2-dioxoheptan-3-yl)carbamoyl)hexahydrocyclopenta[c]pyrrol-2(1H)-yl)-3,3-dimethyl-1-oxobutan-2-yl)carbamate] | 34 nM |
| COC(=O)N[C@@H](Cc1noc(C)n1)C(=O)N1C[C@H]2[C@@H]([C@H]1C(=O)N[C@@H](CCC(C)(F)F)C(=O)C(=O)NC1CC1)C2(C)C [Example 123, methyl ((S)-1-((1R,2S,5S)-2-(((S)-1-(cyclopropylamino)-6,6-difluoro-1,2-dioxoheptan-3-yl)carbamoyl)-6,6-dimethyl-3-azabicyclo[3.1.0]hexan-3-yl)-3-(5-methyl-1,2,4-oxadiazol-3-yl)-1-oxopropan-2-yl)carbamate] | 29 nM |
